Laboratory results published in patent publication US5430033A, “Piperazine derivatives” (John Wyeth & Brother Ltd., priority 1993, dated 1995).

How the values were obtained:
[1] = target: T1, 5-HT1A receptor (Cavia porcellus, UniProt A0A286Y074); experiment: 5-HT1A receptor antagonism: antagonism of 5-carboxamidotryptamine in the guinea-pig ileum in vitro; assay type: cell-based
T1 construct: guinea-pig ileum in vitro; from tissue; host or cells: guinea-pig ileum
T1 sequence (A0A286Y074 1-421): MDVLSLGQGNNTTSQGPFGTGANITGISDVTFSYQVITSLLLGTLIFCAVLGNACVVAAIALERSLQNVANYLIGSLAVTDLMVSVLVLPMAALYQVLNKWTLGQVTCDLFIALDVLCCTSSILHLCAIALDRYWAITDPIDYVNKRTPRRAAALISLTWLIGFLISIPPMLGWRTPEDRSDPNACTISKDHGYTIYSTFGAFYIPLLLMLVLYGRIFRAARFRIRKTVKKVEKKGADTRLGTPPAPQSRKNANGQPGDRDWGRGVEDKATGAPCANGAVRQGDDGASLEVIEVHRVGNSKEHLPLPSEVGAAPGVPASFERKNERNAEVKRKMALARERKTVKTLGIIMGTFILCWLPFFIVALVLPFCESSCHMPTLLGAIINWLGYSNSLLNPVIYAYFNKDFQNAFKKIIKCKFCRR
Description: The compounds are tested for 5-HT1A receptor antagonism activity in a test involving the antagonism of 5-carboxamidotryptamine in the guinea-pig ileum in vitro (based upon the procedure of Fozard et al, Br J Pharmac, 1985, 86, 601P).

[2] = target: T2, 5-HT1A receptor (Rattus norvegicus, UniProt P19327); experiment: 5-HT1A receptor binding activity in rat hippocampal membrane homogenate; details: method of Alexander and Wood
T2 construct: rat hippocampal membrane homogenate; from tissue; host or cells: rat hippocampus, membrane homogenate
T2 sequence (P19327 1-422): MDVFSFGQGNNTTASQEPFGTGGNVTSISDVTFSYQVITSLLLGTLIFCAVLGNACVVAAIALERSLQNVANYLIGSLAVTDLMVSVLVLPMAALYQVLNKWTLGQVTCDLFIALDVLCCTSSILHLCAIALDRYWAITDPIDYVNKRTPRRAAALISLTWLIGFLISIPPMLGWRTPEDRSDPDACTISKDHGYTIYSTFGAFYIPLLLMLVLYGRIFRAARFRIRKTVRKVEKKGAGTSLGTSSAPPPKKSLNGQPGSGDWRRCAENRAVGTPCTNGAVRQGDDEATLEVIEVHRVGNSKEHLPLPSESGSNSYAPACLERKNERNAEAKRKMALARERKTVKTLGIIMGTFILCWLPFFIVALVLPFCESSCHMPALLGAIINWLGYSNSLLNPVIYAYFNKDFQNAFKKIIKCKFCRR
Description: The compounds of the invention are tested for 5-HT1A receptor binding activity in rat hippocampal membrane homogenate by the method of B S Alexander and M D Wood, J Pharm Pharmacol, 1988, 40, 888-891.

SMILES: COc1ccccc1N1CCN(CCc2ccccc2-c2ccccc2)CC1 [Example 3, 1-(2-(2-biphenyl)ethyl)-4-(2-methoxyphenyl)piperazine]
- pA2, 5-HT1A receptor antagonism [1]: 8.1
- IC50 [2]: 2 nM
